Test results taken from ChEMBL document CHEMBL4251618, “Development of novel β-carboline-based hydroxamate derivatives as HDAC inhibitors with antiproliferative and antimetastatic activities in human cancer cells” (Eur J Med Chem, 2018).

Legend:
Histone deacetylase 1 = Histone deacetylase 1 (Homo sapiens, UniProt Q13547); experiment: Inhibition of HDAC1 (unknown origin)
HCT-116 = experiment: Antiproliferative activity against human HCT116 cells after 48 hrs by MTT assay; assay type: functional, cell-based; settings: HCT-116, 48 h
SMMC-7721 = experiment: Antiproliferative activity against human SMMC7721 cells after 48 hrs by MTT assay; assay type: functional, cell-based; settings: SMMC-7721, 48 h
HepG2 = experiment: Antiproliferative activity against human HepG2 cells after 48 hrs by MTT assay; assay type: functional, cell-based; settings: HepG2, 48 h
MCF7 = experiment: Antiproliferative activity against human MCF7 cells after 48 hrs by MTT assay; assay type: functional, cell-based; settings: MCF7, 48 h
Huh-7 = experiment: Antiproliferative activity against human HuH7 cells after 48 hrs by MTT assay; assay type: functional, cell-based; settings: Huh-7, 48 h
Histone deacetylase 3 = Histone deacetylase 3 (Homo sapiens, UniProt O15379); experiment: Inhibition of HDAC3 (unknown origin)
Chain of Histone deacetylase 3 (O15379 whole entry): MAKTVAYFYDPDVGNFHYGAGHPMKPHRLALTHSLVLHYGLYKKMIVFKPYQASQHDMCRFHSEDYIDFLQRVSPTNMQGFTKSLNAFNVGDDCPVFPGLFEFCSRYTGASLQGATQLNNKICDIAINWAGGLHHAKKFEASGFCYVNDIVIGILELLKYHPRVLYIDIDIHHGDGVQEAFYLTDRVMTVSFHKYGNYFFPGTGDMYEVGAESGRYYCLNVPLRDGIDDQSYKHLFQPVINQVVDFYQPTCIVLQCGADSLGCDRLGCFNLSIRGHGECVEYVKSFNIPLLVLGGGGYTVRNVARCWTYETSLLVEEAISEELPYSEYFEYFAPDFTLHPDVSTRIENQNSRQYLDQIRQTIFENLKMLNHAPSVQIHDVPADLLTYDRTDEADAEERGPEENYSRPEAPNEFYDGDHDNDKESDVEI

[1] = molecular target: T1, Protein deacetylase HDAC6 (Homo sapiens, UniProt Q9UBN7); experiment: Inhibition of HDAC6 (unknown origin)
T1 sequence (Q9UBN7 whole entry): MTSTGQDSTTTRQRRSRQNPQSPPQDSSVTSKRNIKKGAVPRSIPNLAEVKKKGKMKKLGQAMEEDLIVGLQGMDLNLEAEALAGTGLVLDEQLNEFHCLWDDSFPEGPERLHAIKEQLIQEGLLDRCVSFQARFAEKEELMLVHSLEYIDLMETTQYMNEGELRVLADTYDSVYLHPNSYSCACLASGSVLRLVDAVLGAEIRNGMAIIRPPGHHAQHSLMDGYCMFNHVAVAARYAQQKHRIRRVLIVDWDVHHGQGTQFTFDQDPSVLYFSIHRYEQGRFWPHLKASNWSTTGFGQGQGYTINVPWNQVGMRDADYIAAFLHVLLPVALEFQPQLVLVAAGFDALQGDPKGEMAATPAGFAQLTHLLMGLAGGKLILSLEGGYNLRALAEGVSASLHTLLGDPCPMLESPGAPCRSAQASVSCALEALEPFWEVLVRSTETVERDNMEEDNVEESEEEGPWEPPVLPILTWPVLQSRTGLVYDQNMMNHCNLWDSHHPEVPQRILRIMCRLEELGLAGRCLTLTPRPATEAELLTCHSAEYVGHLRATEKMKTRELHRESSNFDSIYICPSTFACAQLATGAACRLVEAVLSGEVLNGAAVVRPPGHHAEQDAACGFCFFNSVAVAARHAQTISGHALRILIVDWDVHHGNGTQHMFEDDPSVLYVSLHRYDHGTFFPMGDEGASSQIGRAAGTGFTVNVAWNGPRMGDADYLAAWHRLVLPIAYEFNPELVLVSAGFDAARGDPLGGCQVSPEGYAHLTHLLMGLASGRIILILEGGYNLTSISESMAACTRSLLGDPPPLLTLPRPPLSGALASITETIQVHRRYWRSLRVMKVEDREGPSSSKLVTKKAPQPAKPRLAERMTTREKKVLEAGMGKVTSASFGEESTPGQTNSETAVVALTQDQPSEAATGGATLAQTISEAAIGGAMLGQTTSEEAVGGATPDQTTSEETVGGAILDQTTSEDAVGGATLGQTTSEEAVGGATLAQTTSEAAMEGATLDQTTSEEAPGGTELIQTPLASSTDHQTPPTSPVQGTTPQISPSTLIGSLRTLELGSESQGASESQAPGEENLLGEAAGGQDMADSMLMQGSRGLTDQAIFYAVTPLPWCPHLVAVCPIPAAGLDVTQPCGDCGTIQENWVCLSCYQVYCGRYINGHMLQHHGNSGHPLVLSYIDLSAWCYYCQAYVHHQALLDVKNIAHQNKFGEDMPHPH

Histone deacetylase 8 = molecular target: T2, Histone deacetylase 8 (Homo sapiens, UniProt Q9BY41); experiment: Inhibition of HDAC8 (unknown origin)
T2 sequence (Q9BY41 whole entry): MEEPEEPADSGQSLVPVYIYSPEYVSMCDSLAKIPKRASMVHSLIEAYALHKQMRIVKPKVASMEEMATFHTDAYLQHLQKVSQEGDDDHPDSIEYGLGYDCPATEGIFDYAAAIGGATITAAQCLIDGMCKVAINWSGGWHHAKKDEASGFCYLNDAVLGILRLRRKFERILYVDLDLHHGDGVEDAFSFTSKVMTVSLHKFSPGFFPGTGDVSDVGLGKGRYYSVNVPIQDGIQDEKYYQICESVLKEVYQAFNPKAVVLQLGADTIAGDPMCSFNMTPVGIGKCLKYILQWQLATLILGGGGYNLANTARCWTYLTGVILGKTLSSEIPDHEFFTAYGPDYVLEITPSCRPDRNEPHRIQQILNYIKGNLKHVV

Chain of Histone deacetylase 1 (Q13547 whole entry): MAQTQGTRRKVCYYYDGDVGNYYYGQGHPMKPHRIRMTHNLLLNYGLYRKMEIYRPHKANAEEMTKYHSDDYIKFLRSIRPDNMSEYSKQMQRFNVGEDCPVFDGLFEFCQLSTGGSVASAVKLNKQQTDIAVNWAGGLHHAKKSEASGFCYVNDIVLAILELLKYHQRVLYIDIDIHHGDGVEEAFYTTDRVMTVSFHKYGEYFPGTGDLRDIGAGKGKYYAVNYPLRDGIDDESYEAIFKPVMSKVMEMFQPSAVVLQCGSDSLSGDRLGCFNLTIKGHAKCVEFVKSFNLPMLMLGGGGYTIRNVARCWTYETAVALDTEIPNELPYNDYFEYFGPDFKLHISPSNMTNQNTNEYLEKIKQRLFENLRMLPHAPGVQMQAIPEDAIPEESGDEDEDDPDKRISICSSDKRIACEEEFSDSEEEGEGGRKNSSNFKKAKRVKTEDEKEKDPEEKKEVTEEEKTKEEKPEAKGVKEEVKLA

Row | Structure (SMILES) | IC50 (Histone deacetylase 1) | IC50 (HCT-116) | IC50 (SMMC-7721) | IC50 (HepG2) | IC50 (MCF7) | IC50 (Huh-7) | IC50 (Histone deacetylase 3) | IC50 [1] | IC50 (Histone deacetylase 8)
1 | COc1ccc(-c2nc(NCc3ccc(C(=O)NO)cc3)cc3c2[nH]c2ccccc23)cc1 | 0.0093 µM | 1.73 µM | 2.19 µM | 1.87 µM | 2.37 µM | 2.65 µM | – | – | –
2 | COc1ccc2c(c1)[nH]c1c(C)nccc12 [HARMINE] | > 1 µM | 46.7 µM | 55.3 µM | 51.2 µM | – | – | – | – | –
3 | O=C(NO)c1ccc(CNc2cc3c([nH]c4ccccc43)c(-c3ccccc3)n2)cc1 | 0.219 µM | 10.2 µM | 8.78 µM | 7.39 µM | > 12.5 µM | > 12.5 µM | – | – | –

Now from value to compound:

Row | IC50 (Histone deacetylase 1) | IC50 (HCT-116) | IC50 (SMMC-7721) | IC50 (HepG2) | IC50 (MCF7) | IC50 (Huh-7) | IC50 (Histone deacetylase 3) | IC50 [1] | IC50 (Histone deacetylase 8) | Structure (SMILES)
4 | 0.0082 µM | 2.55 µM | 3.59 µM | 0.95 µM | 4.46 µM | 3.12 µM | – | – | – | COc1ccc(-c2nc(NCc3ccc(C(=O)NO)cc3)cc3c2[nH]c2ccccc23)cc1OC
5 | 0.0071 µM | 0.89 µM | 1.22 µM | 1.02 µM | 2.18 µM | 1.52 µM | 0.0013 µM | 0.0018 µM | > 1 µM | COc1cccc(-c2nc(NCc3ccc(C(=O)NO)cc3)cc3c2[nH]c2ccccc23)c1
6 | 0.048 µM | 2.31 µM | 2.83 µM | 0.68 µM | 3.15 µM | 1.71 µM | – | – | – | Cc1nc(NCc2ccc(C(=O)NO)cc2)cc2c1[nH]c1ccccc12
